Test results as given in patent US5432159A, “N-(α-substituted-pyridinyl)carbonyl dipeptide antihypertensive agents” (Lacer S.A., priority 1991, dated 1995).

How the values were obtained:
[1] = tested on: spontaneously hypertensive rats; assay: Antihypertensive activity in spontaneously hypertensive rats (SHR), tail cuff systolic blood pressure; assay type: in vivo; conditions: for average reduction of the SBP: 1 h after administration, significantly different from control
Protocol: In this recognized model of hypertension, male spontaneously hypertensive rats (315 to 376 g) with systolic blood pressures (SBP) >160 mm Hg were used. Systolic blood pressures were recorded on conscious animals by a tail cuff method (FS-40 blood pressure/pulse monitor). Prior to all measurements, the rats were placed in a restraining cylinder. […] The pressures were monitored again 1, 2, 3, 4 and 24 h after administration of the test compounds. A control group (n=18) was included for comparison purposes.

[2] = tested on: Angiotensin I-Induced Contractions in Guinea-Pig Ileum; assay: Inhibition of Angiotensin I-induced contractions in guinea-pig ileum; conditions: final bath concentration 10 ng/ml; Angiotensin I 100 ng/ml; compound added 2 min before agonist; average of ilea from 5 guinea-pigs
Protocol: Segments of 1.5 cm of freshly excised and washed terminal ileum were suspended in 25-ml tissue baths containing Tyrode's solution at 31° C. and bubbled with 95% O2 -5% CO2. With an initial load of 1.0 g, the resting tension after equilibration and the responses to Angiotensin I or Angiotensin II (both at 100 ng/ml) were monitored and recorded by means of an Ealing isometric transducer and a Lectromed polygraph. Several compounds of this invention were tested in this system, adding them to the bath 2 min. before the respective agonist.
At final bath concentrations of 10 ng/ml, the inhibitory effect of the tested compounds regarding the Angiotensin I-induced contractions was determined. The obtained results are given in Table I. All % inhibitions given therein are the average of results obtained with segments of ilea from 5 guinea-pigs. At final bath concentrations of 1 μg/ml none of the tested compounds produced an appreciable modification of the contractions induced by Angiotensin II.

[3] = oral 30 mg/kg, after 2, 3, 4 and 24 h, Duncan-Kramer test, p<0.05

Structure (SMILES)	average reduction of the SBP ([1]; oral 30 mg/kg)	% Inhibition of Angiotensin I-induced contractions [2]	antihypertensive effect ([1]; oral 30 mg/kg, overall)	other results
C[C@H](CS)C(=O)N1CCC[C@H]1C(=O)O [Captopril, D-3-mercapto-2-methylpropanoyl-L-proline, reference compound]	17.2±8.49 mm Hg	28.9%	–	SBP reduction versus control ([1]; oral 30 mg/kg, after 24 h): inactive
CCOC(=O)c1cccc(C(=O)N[C@@H](C)C(=O)N2CCC[C@H]2C(=O)OCC)n1 [Compound No. 8, N-[(2-Ethoxycarbonyl-6-pyridinyl)carbonyl]-L-alanyl-L-proline ethyl ester]	32.6±7.49 mm Hg	–	significant antihypertensive effect	SBP reduction versus control [1, 3]: significantly different from the control; antihypertensive effect ([1]; oral doses of 7.5 and 15 mg/kg): Antihypertensive effects were also observed
CCOC(=O)[C@@H]1CCCN1C(=O)[C@H](C)NC(=O)c1ccc[nH]c1=O [Compound No. 21, N-[(1,2-Dihydro-2-oxo-3-pyridinyl)carbonyl]-L-alanyl-L-prolineethyl ester]	–	30.7%	significant antihypertensive effect	SBP reduction, time course ([1]; oral 30 mg/kg, monitored 1, 2, 3, 4 and 24 h): significant reduction only after 2 h; SBP reduction ([1]; oral 45 mg/kg, after 2, 3, 4 and 24 h): significant
C[C@H](NC(=O)c1cccc(Cl)n1)C(=O)N1CCC[C@H]1C(=O)O [Compound No. 24, N-[(6-Chloro-2-pyridinyl)carbonyl]-L-atanyl-L-proline]	–	20.6%	–	–
C[C@H](NC(=O)c1cc[nH]c(=S)c1)C(=O)N1CCC[C@H]1C(=O)O [Compound No. 27, N-[(1,2-dihydro-2-thioxo-4-pyridinyl)carbonyl]-L-alanyl-L-proline]	28.4±3.16 mm Hg	18.1%	significant antihypertensive effect	SBP reduction versus control [1, 3]: significantly different from the control; antihypertensive effect ([1]; oral doses of 7.5 and 15 mg/kg): Antihypertensive effects were also observed
C[C@H](NC(=O)c1ccc(=S)[nH]c1)C(=O)N1CCC[C@H]1C(=O)O [Compound No. 29, N-[(1,6-dihydro-6-thioxo-3-pyridinyl)carbonyl]-L-alanyl-L-proline]	–	16.2%	–	–
C[C@H](NC(=O)c1ccc(=O)[nH]c1)C(=O)N1CCC[C@H]1C(=O)O [Compound No. 35, N-[(1,6-dihydro-6-oxo-3-pyridinyl)carbonyl]-L-alanyl-L-proline]	–	16.0%	–	–
